According to patent publication US11254663B2 (BRISTOL-MYERS SQUIBB COMPANY, priority 2019, dated 2022):

Target: FXR (Homo sapiens (Human), UniProt Q96RI1)
Experiment: FXR EC50 (FXR agonist potency reported with each Example)
Type: cell-based

Chain of FXR (Q96RI1 262-486): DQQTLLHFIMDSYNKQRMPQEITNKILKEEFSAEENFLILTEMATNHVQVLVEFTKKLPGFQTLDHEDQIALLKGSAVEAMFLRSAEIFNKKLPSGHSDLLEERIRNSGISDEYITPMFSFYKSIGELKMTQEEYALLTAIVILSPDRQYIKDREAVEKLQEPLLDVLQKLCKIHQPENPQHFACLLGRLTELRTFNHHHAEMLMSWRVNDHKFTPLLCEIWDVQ

With `O=C(N(CC12CCC(c3nc(C4CC4)cs3)(CC1)CC2)c1cccc(-c2cnc(C3CC3)o2)c1)C12CC(F)(C1)C2` [Example 97, N-(3-(2-cyclopropyloxazol-5-yl)phenyl)-N-((4-(4-cyclopropylthiazol-2-yl)bicyclo[2.2.2]octan-1-yl)methyl)-3-fluorobicyclo[1.1.1]pentane-1-carboxamide] the EC50 was 70 nM.
Compound `CC(C)(C)c1noc(C23CCC(CN(C(=O)C4CN(C(=O)C(F)(F)F)C4)c4cccc(-c5nc(C6CC6)no5)c4)(CC2)CC3)n1` [Example 193, N-((4-(3-(tert-butyl)-1,2,4-oxadiazol-5-yl)bicyclo[2.2.2]octan-1-yl)methyl)-N-(3-(3-cyclopropyl-1,2,4-oxadiazol-5-yl)phenyl)-1-(2,2,2-trifluoroacetyl)azetidine-3-carboxamide] has an EC50 of 4870 nM.
With `COCc1coc(-c2cccc(N(CC34CCC(c5nc(C6CC6)no5)(CC3)CC4)C(=O)C3CC(F)(F)C3)c2)n1` [Example 84, N-((4-(3-cyclopropyl-1,2,4-oxadiazol-5-yl)bicyclo[2.2.2]octan-1-yl)methyl)-3,3-difluoro-N-(3-(4-(methoxymethyl)oxazol-2-yl)phenyl)cyclobutane-1-carboxamide] the EC50 was 948 nM.
With `CC(F)(F)c1nc(-c2cccc(N(CC34CCC(c5nc(C6CC6)no5)(CC3)CC4)C(=O)C34CC(F)(C3)C4)c2)no1` [Example 112, N-((4-(3-cyclopropyl-1,2,4-oxadiazol-5-yl)bicyclo[2.2.2]octan-1-yl)methyl)-N-(3-(5-(1,1-difluoroethyl)-1,2,4-oxadiazol-3-yl)phenyl)-3-fluorobicyclo[1.1.1]pentane-1-carboxamide] the EC50 was 68 nM.
`CCc1noc(-c2cccc(N(CC34CCC(c5nc(C6CC6)no5)(CC3)CC4)C(=O)[C@H]3C[C@](O)(C(F)(F)F)C3)c2)n1` [Example 5, (1s, 3s)-N-((4-(3-cyclopropyl-1,2,4-oxadiazol-5-yl)bicyclo[2.2.2]octan-1-yl)methyl)-N-(3-(3-ethyl-1,2,4-oxadiazol-5-yl)phenyl)-3-hydroxy-3-(trifluoromethyl)cyclobutane-1-carboxamide] showed an EC50 of 182 nM.
`Cn1nc(C2CC2)cc1C12CCC(CN(C(=O)C34CC(F)(C3)C4)c3cncc(-c4nc(C5CC5)no4)c3)(CC1)CC2` [Example 205, N-(5-(3-cyclopropyl-1,2,4-oxadiazol-5-yl)pyridin-3-yl)-N-((4-(3-cyclopropyl-1-methyl-1H-pyrazol-5-yl)bicyclo[2.2.2]octan-1-yl)methyl)-3-fluorobicyclo[1.1.1]pentane-1-carboxamide] was tested, and the EC50 was 218 nM.
Work on `O=C(N(CC12CCC(c3nc(C4CC4)no3)(CC1)CC2)c1cccc(-c2noc(C(F)(F)F)n2)c1)C12CC(F)(C1)C2` [Example 108, N-((4-(3-cyclopropyl-1,2,4-oxadiazol-5-yl)bicyclo[2.2.2]octan-1-yl)methyl)-3-fluoro-N-(3-(5-(trifluoromethyl)-1,2,4-oxadiazol-3-yl)phenyl)bicyclo[1.1.1]pentane-1-carboxamide] yielded an EC50 of 144 nM.
`Cn1nc(C2CC2)cc1C12CCC(CN(C(=O)C34CC(F)(C3)C4)c3cccc(-c4noc(C(F)F)n4)c3)(CC1)CC2` [Example 164, N-((4-(3-cyclopropyl-1-methyl-1H-pyrazol-5-yl)bicyclo[2.2.2]octan-1-yl)methyl)-N-(3-(5-(difluoromethyl)-1,2,4-oxadiazol-3-yl)phenyl)-3-fluorobicyclo[1.1.1]pentane-1-carboxamide] showed an EC50 of 104 nM.
With `COc1cccc(-c2cccc(N(CC34CCC(c5nc(C)no5)(CC3)CC4)C(=O)C34CC(F)(C3)C4)c2)c1` [Example 221, 3-fluoro-N-(3′-methoxy-[1,1′-biphenyl]-3-yl)-N-((4-(3-methyl-1,2,4-oxadiazol-5-yl)bicyclo[2.2.2]octan-1-yl)methyl)bicyclo[1.1.1]pentane-1-carboxamide] the EC50 was 506 nM.
`Cn1cc(-c2cccc(N(CC34CCC(c5nc(C6CC6)no5)(CC3)CC4)C(=O)C34CC(F)(C3)C4)c2)nc1C1CC1` [Example 130, N-((4-(3-cyclopropyl-1,2,4-oxadiazol-5-yl)bicyclo[2.2.2]octan-1-yl)methyl)-N-(3-(2-cyclopropyl-1-methyl-1H-imidazol-4-yl)phenyl)-3-fluorobicyclo[1.1.1]pentane-1-carboxamide] was tested, and the EC50 was 585 nM.
With `CCc1noc(-c2cccc(N(CC34CCC(c5ccc(C(C)(C)C#N)cc5)(CC3)OC4)C(=O)C3CCC3)c2)n1` [Example 48, N-((1-(4-(2-cyanopropan-2-yl)phenyl)-2-oxabicyclo[2.2.2]octan-4-yl)methyl)-N-(3-(3-ethyl-1,2,4-oxadiazol-5-yl)phenyl)cyclobutanecarboxamide] the EC50 was 299 nM.
Compound `CCCc1ncc(-c2cccc(N(CC34CCC(c5nc(C6CC6)no5)(CC3)CC4)C(=O)C34CC(F)(C3)C4)c2)o1` [Example 26, N-((4-(3-cyclopropyl-1,2,4-oxadiazol-5-yl)bicyclo[2.2.2]octan-1-yl)methyl)-3-fluoro-N-(3-(2-propyloxazol-5-yl)phenyl)bicyclo[1.1.1]pentane-1-carboxamide] has an EC50 of 72 nM.
Work on `Cn1nc(-c2cccc(N(CC34CCC(c5nc(C6CC6)no5)(CC3)CC4)C(=O)C3CC(C(F)F)C3)c2)cc1C1CC1` (centres unmarked) [Example 78, N-((4-(3-cyclopropyl-1,2,4-oxadiazol-5-yl)bicyclo[2.2.2]octan-1-yl)methyl)-N-(3-(5-cyclopropyl-1-methyl-1H-pyrazol-3-yl)phenyl)-3-(difluoromethyl)cyclobutane-1-carboxamide] yielded an EC50 of 607 nM.
`O=C(N(CC12CCC(c3nc(C4CC4)no3)(CC1)CC2)c1cccc(-c2cc(C3CC3)on2)c1)C12CC(F)(C1)C2` [Example 57, N-((4-(3-cyclopropyl-1,2,4-oxadiazol-5-yl)bicyclo[2.2.2]octan-1-yl)methyl)-N-(3-(5-cyclopropylisoxazol-3-yl)phenyl)-3-fluorobicyclo[1.1.1]pentane-1-carboxamide] showed an EC50 of 19.8 nM.
`CC(C)(C)c1nc(C23CCC(CN(C(=O)C45CC(F)(C4)C5)c4cccc(-c5cnn(S(C)(=O)=O)c5)c4)(CC2)CC3)no1` [Example 194, N-((4-(5-(tert-butyl)-1,2,4-oxadiazol-3-yl)bicyclo[2.2.2]octan-1-yl)methyl)-3-fluoro-N-(3-(1-(methylsulfonyl)-1H-pyrazol-4-yl)phenyl)bicyclo[1.1.1]pentane-1-carboxamide] was tested, and the EC50 was 16 nM.
`O=C(C1CC(F)(F)C1)N(CC12CCC(c3nc(C4CC4)no3)(CC1)OC2)c1cccc(-c2cc(C3CC3)on2)c1` [Example 200, N-((1-(3-cyclopropyl-1,2,4-oxadiazol-5-yl)-2-oxabicyclo[2.2.2]octan-4-yl)methyl)-N-(3-(5-cyclopropylisoxazol-3-yl)phenyl)-3,3-difluorocyclobutane-1-carboxamide] gave an EC50 of 526 nM.
For `O=C(N(CC12CCC(c3nc(C4CC4)no3)(CC1)CC2)c1cccc(-c2nc(CC3CC3)no2)c1)C12CC(F)(C1)C2` [Example 65, N-((4-(3-cyclopropyl-1,2,4-oxadiazol-5-yl)bicyclo[2.2.2]octan-1-yl)methyl)-N-(3-(3-(cyclopropylmethyl)-1,2,4-oxadiazol-5-yl)phenyl)-3-fluorobicyclo[1.1.1]pentane-1-carboxamide], the EC50 was 142 nM.
